According to patent US8821568B2, “Implant modified with non-hydroxylated vitamin D precursors” (Numat Biomedical S.L., priority 2008, dated 2014):

How the values were obtained:
[1] = system: MC3T3-E1 cells; assay: Real-time RT-PCR of vitamin D hydroxylation/degradation enzymes (CYP27A1, CYP27B1, CYP24A1), plastic wells; assay type: cell-based, mouse; settings: TCP, 2 days
Procedure: To test the effect of the different treatments onto the plastic wells, 96-well plates made of polystyrene were used and the treatments with 7-DHC performed directly onto them. Cells grown onto untreated TCP were added as a control for all the experiments. Cells were seeded at a density of 30,000 cells/cm^2 and they were maintained in α-MEM supplemented with 10% FCS and antibiotics. Culture media was collected after 48 hours, to test cytotoxicity and the production of the hydroxylated forms of vitamin D. Cells were harvested after 2 days of culture using Trizol reagent (Roche Diagnostics, Mannheim, Germany), to analyse early gene expression response of several osteoblast differentiation markers and enzymes involved in vitamin D synthesis using real-time RT-PCR.
RNA was isolated from cells using a monophasic solution of phenol and guanidine thiocyanate (Trizol, Roche Diagnostics, Mannheim, Germany) according to the manufacturer's protocol. RNA was quantified at 260 nm using a Nanodrop spectrophotometer (NanoDrop Technologies, Wilmington, Del., USA).
Total RNA previously isolated was reverse-transcribed to cDNA using High Capacity RNA to cDNA kit (Applied Biosystems, Foster City, Calif.) according to the protocol of the supplier. The same amount of total RNA from each sample was converted into cDNA. Each cDNA was diluted ¼ and aliquots were stored at −20° C. until the PCR reactions were carried out.
Real-time RT-PCR was performed for two reference genes: 18S ribosomal RNA (18S rRNA), glyceraldehyde-3-phosphate dehydrogenase (GAPDH), and 11 target genes alkaline phospathase (ALP), Interleukin 6 (IL-6), Collagen (Coll-1), Osteocalcin (OC), Bone Morphogenetic Protein 2 (BMP-2), Osterix (Osx), Receptor activator of nuclear factor kappa-B ligand (RANKL), Osteoprogesterin (OPG) and genes involved in vitamin D synthesis such as Vitamin D3 25-hydroxylase (CYP27A1), 25 hydroxyvitamin D3-1-alpha hydroxylase (CYP27B1) and 1,25-dihydroxyvitamin D3 24-hydroxylase (CYP24A1).
Real-time PCR were performed in the Lightcycler 480® (Roche Diagnostics, Germany). […] After each cycle, fluorescence was measured at 72° C. […]
To allow relative quantification after PCR, real-time efficiencies were calculated from the given slopes in the LightCycler 480 software (Roche Diagnostics, Mannheim, Germany) using serial dilutions. Relative quantification after PCR was calculated by normalizing target gene concentration in each sample by the concentration mean of the two reference genes in given sample using the “advanced relative quantification method” provided by the LightCycler 480 analysis software.

[2] = system: MC3T3-E1 cells; assay: ELISA of 25-D3 released to the culture media, coated titanium implants; assay type: cell-based, mouse; settings: Ti implants; 0.2 nmols; 48 h; UV exposure 15 minutes; vs ethanol-treated Ti samples
Procedure: To test the effect of the surface modification, 96-well plates were used. Ti disks were placed into the wells and treatments and UV-activation were performed over there. Cells grown onto untreated polystyrene tissue culture plastic (TCP) were added as a control for all the experiments. Cells were seeded at a density of 30,000 cells/cm^2 and they were maintained in α-MEM supplemented with 10% FCS and antibiotics. Culture media was collected after 48 hours, to test cytotoxicity and the production of the hydroxylated form of vitamin D, 25-D3. Cells were harvested after two days of culture using Trizol reagent (Roche Diagnostics, Mannheim, Germany), to analyze gene expression of several osteoblast differentiation markers and enzymes involved in vitamin D synthesis using real-time RT-PCR. On the other hand, MC3T3-E1 cells were harvested after 21 days to measure calcium content and ALP activity in the cell monolayer.
25-D3 released to the culture media after 2 days of treatment were analyzed by enzyme-linked immunosorbent assay (ELISA). Aliquots from the culture media were centrifuged at 1800 rpm for 5 minutes at 4° C. and supernatants were used for 25-D3 and determination following instructions described by the manufacturer (Immunodiagnostic Systems Ltd, Boldon, Tyne and Wear, UK).

Q: For `CC(C)CCC[C@@H](C)[C@H]1CC[C@H]2C3=CC=C4C[C@@H](O)CC[C@]4(C)[C@H]3CC[C@]12C` [7-DHC, 7-dehydrocholesterol], which “CYP27B1 mRNA levels” value ([1]; UV-irradiated, higher concentrated samples, significance was not reached) is on record?
A: increase in mRNA levels

Q: What about the “CYP27A1 mRNA levels” value ([1]; UV-treated doses above the lowest, vs UV-untreated corresponding doses) of the same compound?
A: dose-response increase

Q: What about the “25-D3 secretion to the cell culture media” value [2] of the same compound?
A: increased 25-hydroxyvitamin D3 (25-D3) production
